Laboratory results published in patent US6534447B1, “Herbicidal pyridine compounds” (BASF Aktiengesellschaft, priority 1999, dated 2003).

Legend:
Assay type in all cases: in vivo
[1] = tested on: Setaria viridis (SETVI, green foxtail); experiment: Post-emergence herbicidal evaluation; settings: 3 weeks after treatment
Summary of the method: (§1)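 Acetone solutions diluted with water, sprayed post-emergence at about 0.025 to 0.4 kg per hectare; plants then kept under standard greenhouse care. Seedlings rated from 3 weeks after treatment on a 0–9 scale, 0 being growth as untreated control and 9 death.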

[2] = tested on: Echinochloa grus galli (ECHCG, barnyard grass); experiment: Post-emergence herbicidal evaluation; settings: 3 weeks after treatment
Summary of the method: as §1

[3] = tested on: Galium aparine (GALAP, cleaver); experiment: Post-emergence herbicidal evaluation; settings: 3 weeks after treatment
Summary of the method: as §1

[4] = tested on: Abutilon theophrasti (ABUTH, velvetleaf); experiment: Post-emergence herbicidal evaluation; settings: 3 weeks after treatment
Summary of the method: as §1

[5] = tested on: Stellaria media (STEME, chickweed); experiment: Post-emergence herbicidal evaluation; settings: 3 weeks after treatment
Summary of the method: as §1

[6] = tested on: Matricaria inodora (MATIN, mayweed); experiment: Post-emergence herbicidal evaluation; settings: 3 weeks after treatment
Summary of the method: as §1

[7] = tested on: Alopecurus myosuroides (ALOMY, black grass); experiment: Post-emergence herbicidal evaluation; settings: 3 weeks after treatment
Summary of the method: as §1

[8] = tested on: Ipomoea hederacea (IPOHE, morning glory); experiment: Post-emergence herbicidal evaluation; settings: 3 weeks after treatment
Summary of the method: as §1

[9] = tested on: Dolium multiflorum (LOLMU, ryegrass); experiment: Post-emergence herbicidal evaluation; settings: rate 0.100 kg/ha, 3 weeks after treatment
Summary of the method: as §1

[10] = tested on: Setaria viridis (SETVI, green foxtail); experiment: Pre-emergence herbicidal evaluation; settings: 3 weeks after treatment
Summary of the method: (§2)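 Seeds mixed with potting soil were sprayed after planting with aqueous acetone solution of test compound at about 0.025 to 0.4 kg per hectare. Pots were kept under standard greenhouse care and rated about 3 weeks after treatment.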

[11] = tested on: Echinochloa grus galli (ECHCG, barnyard grass); experiment: Pre-emergence herbicidal evaluation; settings: 3 weeks after treatment
Summary of the method: as §2

[12] = tested on: Galium aparine (GALAP, cleaver); experiment: Pre-emergence herbicidal evaluation; settings: 3 weeks after treatment
Summary of the method: as §2

[13] = tested on: Abutilon theophrasti (ABUTH, velvetleaf); experiment: Pre-emergence herbicidal evaluation; settings: 3 weeks after treatment
Summary of the method: as §2

[14] = tested on: Stellaria media (STEME, chickweed); experiment: Pre-emergence herbicidal evaluation; settings: 3 weeks after treatment
Summary of the method: as §2

[15] = tested on: Matricaria inodora (MATIN, mayweed); experiment: Pre-emergence herbicidal evaluation; settings: 3 weeks after treatment
Summary of the method: as §2

[16] = tested on: Alopecurus myosuroides (ALOMY, black grass); experiment: Pre-emergence herbicidal evaluation; settings: 3 weeks after treatment
Summary of the method: as §2

[17] = tested on: Ipomoea hederacea (IPOHE, morning glory); experiment: Pre-emergence herbicidal evaluation; settings: 3 weeks after treatment
Summary of the method: as §2

[18] = tested on: Triticum aestivum (TRZAW, winter wheat); experiment: Pre-emergence herbicidal evaluation (crop); settings: 3 weeks after treatment
Summary of the method: as §2

[19] = tested on: Glycine max (GLXMA, soyabeans); experiment: Pre-emergence herbicidal evaluation (crop); settings: 3 weeks after treatment
Summary of the method: as §2

[20] = tested on: Zea mays (ZEAMX, maize); experiment: Pre-emergence herbicidal evaluation (crop); settings: 3 weeks after treatment
Summary of the method: as §2

[21] = tested on: weeds; experiment: Post-emergence herbicidal evaluation, overall weed control; settings: down to the lowest dose of 0.025 kg/ha
Procedure: These acetone solutions are diluted with water and the resulting formulations applied at dosage levels equivalent of about 0.025 to 0.4 kg per hectare of test compound per pot. After spraying the plants are placed on greenhouse benches and are cared for in the usual manner, commensurate with conventional greenhouse practices. From 3 weeks after treatment, the seedling plants are examined and rated according to the rating system provided above. A rating 0 indicates growth as untreated control, a rating 9 indicates death.

[22] = tested on: eight weed species; experiment: Pre-emergence herbicidal evaluation, overall weed control; settings: crop selective dose of 0.1 kg/ha
Source text: The pre-emergence herbicidal activity of the compounds of the present invention is exemplified by the following test in which the seeds of a variety of monocotyledonous and dicotyledonous plants are seperately mixed with potting soil and planted on top of approximately one inch of soil in separate post. After planting, the pots are sprayed with the selected aqueous acetone solution. containing test compound in sufficient quantity to provide the equivalent of about 0.025 to 0.4 kg per hectare of test compound per pot. The treated pots are then placed on greenhouse benches, watered and cared for in accordance with conventional greenhouse procedures. From 3 weeks after treatment, the tests are terminated and each pot is examined and rated according to the rating system set forth below.
Thus, there is evidence for the good potential of the compounds of the invention for excellent cross spectrum control of both grasses and broadleaf weeds in key crops.

Cc1cc(OCCCSC(F)(F)F)nc(Oc2ccnc(C(F)(F)F)c2)c1 [Example 53]
SETVI rating ([1]; rate 0.025 kg/ha): 9 (9 - Complete kill) | SETVI rating ([1]; rate 0.100 kg/ha): 9 (9 - Complete kill) | SETVI rating ([1]; rate 0.400 kg/ha): 9 (9 - Complete kill) | ECHCG rating ([2]; rate 0.025 kg/ha): 9 (9 - Complete kill) | ECHCG rating ([2]; rate 0.100 kg/ha): 9 (9 - Complete kill) | ECHCG rating ([2]; rate 0.400 kg/ha): 9 (9 - Complete kill) | GALAP rating ([3]; rate 0.025 kg/ha): 6 (6 - Herbicidal effect) | GALAP rating ([3]; rate 0.100 kg/ha): 9 (9 - Complete kill) | GALAP rating ([3]; rate 0.400 kg/ha): 9 (9 - Complete kill) | ABUTH rating ([4]; rate 0.025 kg/ha): 8 (8 - Approaching complete kill) | ABUTH rating ([4]; rate 0.100 kg/ha): 9 (9 - Complete kill) | ABUTH rating ([4]; rate 0.400 kg/ha): 9 (9 - Complete kill) | STEME rating ([5]; rate 0.025 kg/ha): 8 (8 - Approaching complete kill) | STEME rating ([5]; rate 0.100 kg/ha): 9 (9 - Complete kill) | STEME rating ([5]; rate 0.400 kg/ha): 9 (9 - Complete kill) | MATIN rating ([6]; rate 0.025 kg/ha): 6 (6 - Herbicidal effect) | MATIN rating ([6]; rate 0.100 kg/ha): 8 (8 - Approaching complete kill) | MATIN rating ([6]; rate 0.400 kg/ha): 8 (8 - Approaching complete kill) | ALOMY rating ([7]; rate 0.025 kg/ha): 6 (6 - Herbicidal effect) | ALOMY rating ([7]; rate 0.100 kg/ha): 8 (8 - Approaching complete kill) | ALOMY rating ([7]; rate 0.400 kg/ha): 9 (9 - Complete kill) | IPOHE rating ([8]; rate 0.025 kg/ha): 9 (9 - Complete kill) | IPOHE rating ([8]; rate 0.100 kg/ha): 9 (9 - Complete kill) | IPOHE rating ([8]; rate 0.400 kg/ha): 9 (9 - Complete kill) | LOLMU rating [9]: 8 (8 - Approaching complete kill) | SETVI rating ([10]; rate 0.025 kg/ha): 8 (8 - Approaching complete kill) | SETVI rating ([10]; rate 0.100 kg/ha): 8 (8 - Approaching complete kill) | SETVI rating ([10]; rate 0.400 kg/ha): 8 (8 - Approaching complete kill) | ECHCG rating ([11]; rate 0.025 kg/ha): 7 (7 - Good herbicidal effect) | ECHCG rating ([11]; rate 0.100 kg/ha): 8 (8 - Approaching complete kill) | ECHCG rating ([11]; rate 0.400 kg/ha): 9 (9 - Complete kill) | GALAP rating ([12]; rate 0.025 kg/ha): 4 (4 - Injury) | GALAP rating ([12]; rate 0.100 kg/ha): 8 (8 - Approaching complete kill) | GALAP rating ([12]; rate 0.400 kg/ha): 8 (8 - Approaching complete kill) | ABUTH rating ([13]; rate 0.025 kg/ha): 9 (9 - Complete kill) | ABUTH rating ([13]; rate 0.100 kg/ha): 9 (9 - Complete kill) | ABUTH rating ([13]; rate 0.400 kg/ha): 9 (9 - Complete kill) | STEME rating ([14]; rate 0.025 kg/ha): 9 (9 - Complete kill) | STEME rating ([14]; rate 0.100 kg/ha): 9 (9 - Complete kill) | STEME rating ([14]; rate 0.400 kg/ha): 9 (9 - Complete kill) | MATIN rating ([15]; rate 0.025 kg/ha): 8 (8 - Approaching complete kill) | MATIN rating ([15]; rate 0.100 kg/ha): 8 (8 - Approaching complete kill) | MATIN rating ([15]; rate 0.400 kg/ha): 9 (9 - Complete kill) | ALOMY rating ([16]; rate 0.025 kg/ha): 8 (8 - Approaching complete kill) | ALOMY rating ([16]; rate 0.100 kg/ha): 8 (8 - Approaching complete kill) | ALOMY rating ([16]; rate 0.400 kg/ha): 8 (8 - Approaching complete kill) | IPOHE rating ([17]; rate 0.025 kg/ha): 8 (8 - Approaching complete kill) | IPOHE rating ([17]; rate 0.100 kg/ha): 8 (8 - Approaching complete kill) | IPOHE rating ([17]; rate 0.400 kg/ha): 9 (9 - Complete kill) | TRZAW rating ([18]; rate 0.025 kg/ha): 1 (1 - Trace effect) | TRZAW rating ([18]; rate 0.100 kg/ha): 2 (2 - Slight effect) | TRZAW rating ([18]; rate 0.400 kg/ha): 4 (4 - Injury) | GLXMA rating ([19]; rate 0.025 kg/ha): 4 (4 - Injury) | GLXMA rating ([19]; rate 0.100 kg/ha): 4 (4 - Injury) | GLXMA rating ([19]; rate 0.400 kg/ha): 6 (6 - Herbicidal effect) | ZEAMX rating ([20]; rate 0.025 kg/ha): 2 (2 - Slight effect) | ZEAMX rating ([20]; rate 0.100 kg/ha): 4 (4 - Injury) | ZEAMX rating ([20]; rate 0.400 kg/ha): 4 (4 - Injury) | activity against weeds (in words) [21]: high levels of activity | weed control (in words) [22]: complete control
